Patent US20240140991A1, “ANTIBIOTIC NATURAL PRODUCT ANALOGUES” (THE QUEEN'S UNIVERSITY OF BELFAST, priority 2021, published 2024)
Converted amounts (≈) assume the structure as drawn. Positions of bridges follow the written chain, without caps; N, C: chain ends. Non-standard residues stand in square brackets, D forms with d. Residues, ends and D or L forms follow the SMILES beside them. ξ: configuration not given here. *: point of attachment. Hexanoyl(4ξ-Me) = CCC(C)CCC(=O)*; Lauroyl = CCCCCCCCCCCC(=O)*; Decanoyl = CCCCCCCCCC(=O)*; dOrn = NCCC[C@@H](N)C(=O)O; Octanoyl = CCCCCCCC(=O)*; Orn = NCCC[C@H](N)C(=O)O; Hexanoyl = CCCCCC(=O)*; Butyryl = CCCC(=O)*; OAll = C=CCO*

Assays:
P. aeruginosa PAO1 = assay type: cell-based, Pseudomonas aeruginosa; conditions: PAO1
Description: (§1) Minimum inhibitory concentration (MIC) was determined by broth microdilution according to CLSI guidelines. Blood agar plates were inoculated with glycerol stocks of Escherichia coli ATCC 25922, E. coli ATCC 25922 MCR-1, E. coli MCR-1 (clinical isolate from Utrecht Medical Center, NL), E. coli EQAS MCR-2 (clinical isolate from Wageningen University and Research, NL), Kiebsielia pneumoniae ATCC 11228, K. pneumoniae ATCC 13883, K. pneumonia 2048 (clinical isolate from Vrije Universiteit Amsterdam Medical Center, NL), K. pneumonia JS-123 (clinical isolate from Utrecht Medical Center, NL), Acinetobacter baumannii ATCC 17961, A. baumannil ATCC 17978, A. baumannii 2018-006 (clinical isolate from Rijksinstituut voor Volksgezondheid en Milieu, NL), A. baumannii MDR (clinical isolate from Vrije Universiteit Amsterdam Medical Center, NL), Pseudomonas aeruginosa ATCC 27853, P. aeruginosa PAO1, P. aeruginosa NRZ-03961 (Reference strain from Das Nationale Referenzzentrum für gramnegative Krankenhauserreger, DE), P. aeruginosa M-120 (clinical isolate from Leiden University Medical Center, NL) and Staphylococcus aureus USA300 (clinical isolate from Texas Children's Hospitalm, USA). E. coli 25922 MCR1 was grown on LB agar supplemented with kanamycin. The inoculated agar plates were then incubated for 16 hours at 37° C. Individually grown colonies were subsequently used to inoculate 3 mL aliquots of TSB that were then incubated at 37° C. with shaking at 220 rpm. In parallel, the compounds to be assessed were serially diluted with Mueller-Hinton broth (MHB) in polypropylene 96-well plates (50 μL in each well). Once the OD600 of the bacterial suspensions reached 0.5, the bacteria were diluted with MHB (final concentration 2×10^5 CFU mL^−1) and added to the microplates containing the test compounds (50 μL to each well, final volume: 100 μL). The well-plates were sealed with an adhesive membrane and after 16 hours of incubation at 37° C. with shaking at 220 rpm the wells were visually inspected for bacterial growth. MIC values were defined as the lowest concentration of the compound that prevented visible growth of bacteria.

K. pneumoniae ATCC 11228 = assay type: cell-based, Klebsiella pneumoniae; conditions: ATCC 11228
Description: as §1

A. baumannii ATCC 17978 = assay type: cell-based, Acinetobacter baumannii; conditions: ATCC 17978
Description: as §1

[1] = system: Escherichia coli ATCC 25922; assay type: cell-based; conditions: ATCC 25922
How it was run: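 Broth microdilution in MHB per CLSI; inoculum 2×10^5 CFU mL^−1 from log-phase TSB cultures at OD600 0.5. Plates incubated 16 hours at 37° C with shaking at 220 rpm. MIC is the lowest concentration preventing visible growth.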

E. coli = assay type: cell-based
Description: as §1
MIC values were determined for the lipid analogues of brevicidine.
MIC values were determined for the position 9 analogues of linear brevicidine.

Row | SMILES | Minimum inhibitory concentration (MIC) (P. aeruginosa PAO1) [µg/mL] | Minimum inhibitory concentration (MIC) (K. pneumoniae ATCC 11228) [µg/mL] | Minimum inhibitory concentration (MIC) (A. baumannii ATCC 17978) [µg/mL] | Minimum inhibitory concentration (MIC) [1] [µg/mL] | E. coli MIC (E. coli) [µg/mL]
1 | CCCCCCCC(=O)N[C@H](CO)C(=O)N[C@H](Cc1ccc(O)cc1)C(=O)N[C@H](Cc1c[nH]c2ccccc12)C(=O)N[C@H](CCCN)C(=O)N[C@@H](CCCN)C(=O)NCC(=O)N[C@H](CCCN)C(=O)N[C@@H](Cc1c[nH]c2ccccc12)C(=O)N[C@@H]1C(=O)N[C@@H]([C@@H](C)CC)C(=O)N[C@@H](CC(N)=O)C(=O)NCC(=O)NCC(=O)O[C@@H]1C [Compound C8] (Octanoyl-[dS][dY][dW][dOrn][Orn]G[dOrn]WTINGG; ester 9-C) | 1 (≈ 0.629 µM) | 0.5 to 1 | 0.5 to 1 | 0.5 to 1 | 
2 | CCCCCC(=O)N[C@H](CO)C(=O)N[C@H](Cc1ccc(O)cc1)C(=O)N[C@H](Cc1c[nH]c2ccccc12)C(=O)N[C@H](CCCN)C(=O)N[C@@H](CCCN)C(=O)NCC(=O)N[C@H](CCCN)C(=O)N[C@@H](Cc1c[nH]c2ccccc12)C(=O)N[C@@H]1C(=O)N[C@@H]([C@@H](C)CC)C(=O)N[C@@H](CC(N)=O)C(=O)NCC(=O)NCC(=O)O[C@@H]1C [Compound C6] (Hexanoyl-[dS][dY][dW][dOrn][Orn]G[dOrn]WTINGG; ester 9-C) | 1 to 2 | 2 (≈ 1.28 µM) | 1 (≈ 0.64 µM) | 1 to 2 | 
3 | CCCC(=O)N[C@H](CO)C(=O)N[C@H](Cc1ccc(O)cc1)C(=O)N[C@H](Cc1c[nH]c2ccccc12)C(=O)N[C@H](CCCN)C(=O)N[C@@H](CCCN)C(=O)NCC(=O)N[C@H](CCCN)C(=O)N[C@@H](Cc1c[nH]c2ccccc12)C(=O)N[C@@H]1C(=O)N[C@@H]([C@@H](C)CC)C(=O)N[C@@H](CC(N)=O)C(=O)NCC(=O)NCC(=O)O[C@@H]1C [Compound C4] (Butyryl-[dS][dY][dW][dOrn][Orn]G[dOrn]WTINGG; ester 9-C) | 8 (≈ 5.21 µM) | 8 (≈ 5.21 µM) | 4 (≈ 2.61 µM) | 8 (≈ 5.21 µM) | 
4 | CC[C@H](C)[C@@H]1NC(=O)[C@@H](NC(=O)[C@H](Cc2c[nH]c3ccccc23)NC(=O)[C@@H](CCCN)NC(=O)CNC(=O)[C@H](CCCN)NC(=O)[C@@H](CCCN)NC(=O)[C@@H](Cc2c[nH]c3ccccc23)NC(=O)[C@@H](Cc2ccc(O)cc2)NC(=O)[C@H](N)CO)[C@@H](C)OC(=O)CNC(=O)CNC(=O)[C@H](CC(N)=O)NC1=O [NH2] (H-[dS][dY][dW][dOrn][Orn]G[dOrn]WTINGG; ester 9-C) | 64 (≈ 43.7 µM) | >64 | >64 | 32 (≈ 21.8 µM) | 
5 | CC[C@H](C)[C@@H]1NC(=O)[C@@H](NC(=O)[C@H](Cc2c[nH]c3ccccc23)NC(=O)[C@@H](CCCN)NC(=O)CNC(=O)[C@H](CCCN)NC(=O)[C@@H](CCCN)NC(=O)[C@@H](Cc2c[nH]c3ccccc23)NC(=O)[C@@H](Cc2ccc(O)cc2)NC(=O)[C@@H](CO)NC(C)=O)[C@@H](C)OC(=O)CNC(=O)CNC(=O)[C@H](CC(N)=O)NC1=O [Compound C2] (Ac-[dS][dY][dW][dOrn][Orn]G[dOrn]WTINGG; ester 9-C) | 16 (≈ 10.6 µM) | 16 (≈ 10.6 µM) | 64 (≈ 42.5 µM) | 16 (≈ 10.6 µM) | 
6 | CC[C@H](C)[C@@H]1NC(=O)[C@@H](NC(=O)[C@H](Cc2c[nH]c3ccccc23)NC(=O)[C@@H](CCCN)NC(=O)CNC(=O)[C@H](CCCN)NC(=O)[C@@H](CCCN)NC(=O)[C@@H](Cc2c[nH]c3ccccc23)NC(=O)[C@@H](Cc2ccc(O)cc2)NC(=O)[C@H](N)CC(N)=O)[C@@H](C)OC(=O)[C@H](CO)NC(=O)CNC1=O [Brev-NH2] (H-[dN][dY][dW][dOrn][Orn]G[dOrn]WTIGS; ester 9-C) |  |  |  |  | 50
7 | CCCCCCCCCCCC(=O)N[C@H](CC(N)=O)C(=O)N[C@H](Cc1ccc(O)cc1)C(=O)N[C@H](Cc1c[nH]c2ccccc12)C(=O)N[C@H](CCCN)C(=O)N[C@@H](CCCN)C(=O)NCC(=O)N[C@H](CCCN)C(=O)N[C@@H](Cc1c[nH]c2ccccc12)C(=O)N[C@@H]1C(=O)N[C@@H]([C@@H](C)CC)C(=O)NCC(=O)N[C@@H](CO)C(=O)O[C@@H]1C [Brev-C12] (Lauroyl-[dN][dY][dW][dOrn][Orn]G[dOrn]WTIGS; ester 9-C) |  |  |  |  | 3.12

Second part, the molecule after the results:

Row | Minimum inhibitory concentration (MIC) (P. aeruginosa PAO1) [µg/mL] | Minimum inhibitory concentration (MIC) (K. pneumoniae ATCC 11228) [µg/mL] | Minimum inhibitory concentration (MIC) (A. baumannii ATCC 17978) [µg/mL] | Minimum inhibitory concentration (MIC) [1] [µg/mL] | E. coli MIC (E. coli) [µg/mL] | SMILES
8 |  |  |  |  | 0.4 | C=CCOC(=O)CC[C@H](NC(=O)[C@H](Cc1c[nH]c2ccccc12)NC(=O)[C@@H](CCCN)NC(=O)CNC(=O)[C@H](CCCN)NC(=O)[C@@H](CCCN)NC(=O)[C@@H](Cc1c[nH]c2ccccc12)NC(=O)[C@@H](Cc1ccc(O)cc1)NC(=O)[C@@H](CC(N)=O)NC(=O)CCC(C)CC)C(=O)N[C@H](C(=O)NCC(N)=O)[C@@H](C)CC (stereo partly drawn) [Und(9-AllGlu)-NH2] ({Hexanoyl(4ξ-Me)}-[dN][dY][dW][dOrn][Orn]G[dOrn]WE(OAll)IG-NH2)
9 |  |  |  |  | <0.20 | CCC(C)CCC(=O)N[C@H](CC(N)=O)C(=O)N[C@H](Cc1ccc(O)cc1)C(=O)N[C@H](Cc1c[nH]c2ccccc12)C(=O)N[C@H](CCCN)C(=O)N[C@@H](CCCN)C(=O)NCC(=O)N[C@H](CCCN)C(=O)N[C@@H](Cc1c[nH]c2ccccc12)C(=O)N[C@@H](Cc1ccccc1)C(=O)N[C@H](C(=O)NCC(N)=O)[C@@H](C)CC (stereo partly drawn) [Und(9-Phe)-NH2] ({Hexanoyl(4ξ-Me)}-[dN][dY][dW][dOrn][Orn]G[dOrn]WFIG-NH2)
10 |  |  |  |  | 12.5 | CCC(C)CCC(=O)N[C@H](CC(N)=O)C(=O)N[C@H](Cc1ccc(O)cc1)C(=O)N[C@H](Cc1c[nH]c2ccccc12)C(=O)N[C@H](CCCN)C(=O)N[C@@H](CCCN)C(=O)NCC(=O)N[C@H](CCCN)C(=O)N[C@@H](Cc1c[nH]c2ccccc12)C(=O)N[C@@H](CC(=O)O)C(=O)N[C@H](C(=O)NCC(N)=O)[C@@H](C)CC (stereo partly drawn) [Und(9-Asp)-NH2] ({Hexanoyl(4ξ-Me)}-[dN][dY][dW][dOrn][Orn]G[dOrn]WDIG-NH2)
11 |  |  |  |  | 25 | CCCCCC(=O)N[C@H](CC(N)=O)C(=O)N[C@H](Cc1ccc(O)cc1)C(=O)N[C@H](Cc1c[nH]c2ccccc12)C(=O)N[C@H](CCCN)C(=O)N[C@@H](CCCN)C(=O)NCC(=O)N[C@H](CCCN)C(=O)N[C@@H](Cc1c[nH]c2ccccc12)C(=O)N[C@@H]1C(=O)N[C@@H]([C@@H](C)CC)C(=O)NCC(=O)N[C@@H](CO)C(=O)O[C@@H]1C [Brev-C6] (Hexanoyl-[dN][dY][dW][dOrn][Orn]G[dOrn]WTIGS; ester 9-C)
12 |  |  |  |  | 1.56 | CCCCCCCCCC(=O)N[C@H](CC(N)=O)C(=O)N[C@H](Cc1ccc(O)cc1)C(=O)N[C@H](Cc1c[nH]c2ccccc12)C(=O)N[C@H](CCCN)C(=O)N[C@@H](CCCN)C(=O)NCC(=O)N[C@H](CCCN)C(=O)N[C@@H](Cc1c[nH]c2ccccc12)C(=O)N[C@@H]1C(=O)N[C@@H]([C@@H](C)CC)C(=O)NCC(=O)N[C@@H](CO)C(=O)O[C@@H]1C [Brev-C10] (Decanoyl-[dN][dY][dW][dOrn][Orn]G[dOrn]WTIGS; ester 9-C)
